Results reported in US10947252B2, “Inhibitors of KEAP1-Nrf2 protein-protein interaction” (Janssen Pharmaceutica NV, priority 2018, dated 2021).

Legend:
[1] = molecular target: Kelch domain of human KEAP1 (321-624 aa) (Homo sapiens (Human), UniProt Q14145); test: KEAP1 KELCH ThermoFluor binding assay; conditions: KEAP Kelch […], 1,8-ANS, pH 7.0, average of results obtained, read-out: Tf Kd;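 also: Ligand-induced melting temperature shift of E. coli-expressed KEAP1 Kelch protein, Kd estimated from concentration-response curves of ΔTm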
Sequence of Kelch domain of human KEAP1 (321-624 aa) (Q14145 321-624): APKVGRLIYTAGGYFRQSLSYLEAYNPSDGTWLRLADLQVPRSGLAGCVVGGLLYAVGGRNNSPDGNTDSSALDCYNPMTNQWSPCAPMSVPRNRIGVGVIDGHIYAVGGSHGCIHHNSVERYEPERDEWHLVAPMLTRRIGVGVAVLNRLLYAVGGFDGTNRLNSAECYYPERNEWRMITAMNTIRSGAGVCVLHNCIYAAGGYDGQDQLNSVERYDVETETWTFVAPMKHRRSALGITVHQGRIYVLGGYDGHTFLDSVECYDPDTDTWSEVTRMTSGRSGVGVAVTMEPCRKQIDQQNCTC

[2] = tested on: Glo-Response ARE-luc2P HEK293 cell line; test: ARE luciferase reporter cell-based assay; conditions: Homo sapiens, HEK293, 24 h, average of results obtained;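 also: luciferase signal tracks Nrf2 activation of the ARE once compounds disrupt KEAP1-Nrf2 binding, read with One-Glo reagent, DMSO serving as low control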

Row | SMILES | Kd [1] | EC50 [2]
1 | Cc1ccc([C@H](CC(=O)O)c2ccn3c(C(F)(F)F)nnc3c2C)nc1CN1CC2(COC2)Oc2ccccc2S1(=O)=O (single isomer, unassigned) [Example 486, (*R)-3-(6-((1,1-dioxidospiro[benzo[b][1,4,5]oxathiazepine-4,3′-oxetan]-2(3H)-yl)methyl)-5-methylpyridin-2-yl)-3-(8-methyl-3-(trifluoromethyl)-[1,2,4]triazolo[4,3-a]pyridin-7-yl)propanoic Acid] | 1.83 nM | 333 nM
2 | Cc1cnc2c(c1)S(=O)(=O)N(Cc1cc([C@H](c3ccc4c(nnn4C4CC4)c3C)C(C)(C)C(=O)O)cnc1C)CC1(COC1)O2 (single isomer, unassigned) [Example 624, (*S)-3-(1-Cyclopropyl-4-methyl-1H-benzo[d][1,2,3]triazol-5-yl)-2,2-dimethyl-3-(6-methyl-5-((8′-methyl-1′,1′-dioxidospiro[oxetane-3,4′-pyrido[2,3-b][1,4,5]]oxathiazepin]-2′(3′H)-yl)methyl)pyridine-3-yl)propanoic Acid] | 18400 nM | 3660 nM
3 | Cc1ccc([C@@H](CC(=O)O)c2ccc3c(nnn3CC3CC3)c2C(F)F)cc1CN1CC2CCCN2c2ncccc2S1(=O)=O (stereo in doubt) [Example 68, (*R)-3-(1-(Cyclopropylmethyl)-4-(difluoromethyl-1H-benzo[d][1,2,3]triazol-5-yl)-3-(3-((R-5,5-dioxido-7a,8,9,10-tetrahydropyridi[2,3-f]pyrrolo[2,1-d][1,2,5]thiadiazepin-6(7H)-yl)methyl)-4-methylphenyl)propanoic Acid] | 1.4 nM | 250 nM
4 | Cc1cnc2c(c1)S(=O)(=O)N(Cc1nc([C@H](c3ccn4c(C(F)(F)F)nnc4c3C)C(C)(C)C(=O)O)ccc1C)CC1(CNC1)O2 (single isomer, unassigned) [Example 629, (*R)-2,2-Dimethyl-3-(8-methyl-3-(trifluoromethyl)-[1,2,4]triazolo[4,3-a]pyridin-7-yl)-3-(5-methyl-6-((8′-methyl-1′,1′-dioxidospiro[azetidine-3,4′-pyrido[2,3-b][1,4,5]oxathiazepin]-2′(3′H)-yl)methyl)pyridin-2-yl)propanoic Acid] | 131000 nM | > 20000 nM
5 | Cc1ccc([C@@H](c2ccn3c(C(F)F)nnc3c2C)C(C)(C)C(=O)O)nc1CN1CC2(CC2)Oc2nc(OCCN3CCCCC3)c(C)cc2S1(=O)=O (single isomer, unassigned) [Example 356, (*S)-3-(3-(Difluoromethyl)-8-methyl-[1,2,4]triazolo[4,3-a]pyridin-7-yl)-2,2-dimethyl-3-(5-methyl-6-((8′-methyl-1′,1′-dioxido-7′-(2-(piperidin-1-yl)ethoxy)spiro[cyclopropane-1,4′-pyrido[2,3-b][1,4,5]oxathiazepin]-2′(3′H)-yl)methyl)pyridin-2-yl)propanoic Acid] | 3550 nM | 11.8 nM
6 | Cc1ccc([C@@H](CC(=O)O)c2ccc3c(nnn3CC3CC3)c2C)cc1CN1C[C@]2(C)CCCN2c2ncccc2S1(=O)=O (relative stereo) [Example 11, 3-(1-(Cyclopropylmethyl)-4-methyl-1H-benzo[d][1,2,3]triazol-5-yl)-3-(4-methyl-3-(((*S)-7a-methyl-5,5-dioxido-7a,8,9,10-tetrahydropyrido[2,3-f]pyrrolo[2,1-d][1,2,5]thiadiazepin-6(7H)-yl)methyl)phenyl)propanoic Acid] | 0.024 nM | 4.2 nM
7 | Cc1ccc([C@@H](c2ccn3c(C(F)(F)F)nnc3c2C)C(C)(C)C(=O)O)cc1CN1CC2(CCOCC2)Oc2nc(N[C@H](C)CCO)ccc2S1(=O)=O (single isomer, unassigned) [Example 119, (*S)-3-(3-((7′-(((R)-4-Hydroxybutan-2-yl)amino)-1′,1′-dioxido-2,3,5,6-tetrahydrospiro[pyran-4,4′-pyrido[2,3-b][1,4,5]oxathiazepin]-2′(3′H)-yl)methyl)-4-methylphenyl)-2,2-dimethyl-3-(8-methyl-3-(trifluoromethyl)-[1,2,4[triazolo[4,3-a]pyridine-7-yl)propanoic Acid] | < 1 nM | 166 nM
8 | Cc1ccc([C@H](CC(=O)O)c2ccn3c(C(F)(F)F)nnc3c2C)cc1CN1C[C@H]2CCCCN2c2ncc(C#N)cc2S1(=O)=O (single isomer, unassigned) [Example 9, (*S)-3-(3-(((*R)-3-Cyano-5,5-dioxido-7,7a,8,9,10,11-hexahydro-6H-dipyrido[2,1-d:2′,3′-f][1,2,5]thiadiazepin-6-yl)methyl)-4-methylphenyl)-3-(8-methyl-3-(trifluoromethyl)-[1,2,4]triazolo[4,3-a]pyridin-7-yl)propanoic Acid] | < 1 nM | 3.8 nM
9 | Cc1cnc2c(c1)S(=O)(=O)N(Cc1cc([C@@H](c3ccn4c(C(F)(F)F)nnc4c3C)C(C)(C)C(=O)O)ncc1C)CC1(CC1)O2 (single isomer, unassigned) [Example 588, (*S)-2,2-Dimethyl-3-(8-methyl-3-(trifluoromethyl)-[1,2,4]triazolo[4,3-a]pyridin-7-yl)-3-(5-methyl-4-((8′-methyl-1′,1′-dioxidospiro[cyclopropane-1,4′-pyrido[2,3-b][1,4,5]oxathiazepin]-2′(3′H)-yl)methyl)pyridin-2-yl)propanoic Acid] | < 1 nM | 7.64 nM
10 | CCn1nnc2c(C)c([C@@H](c3cnc(C)c(CN4CC5(CCOCC5)Oc5ncc(C)cc5S4(=O)=O)c3)C(C)(C)C(=O)O)ccc21 (single isomer, unassigned) [Example 62, (*S)-3-(1-Ethyl-4-methyl-1H-benzo[d][1,2,3]triazol-5-yl)-2,2-dimethyl-3-(6-methyl-5-((8′-methyl-1′,1′-dioxido-2,3,5,6-tetrahydrospiro[pyran-4,4′-pyrido[2,3-b][1,4,5]oxathiazepin]-2′(3′H)-yl)methyl)pyridin-3-yl)propanoic Acid] | < 1 nM | 19.2 nM
11 | Cc1ccc([C@@H](CC(=O)O)c2ccn3c(C(F)F)nnc3c2C)cc1CN1CC2(COC2)Oc2ncccc2S1(=O)=O (single isomer, unassigned) [Example 471, (*R)-3-(3-(Difluoromethyl)-8-methyl-[1,2,4]triazolo[4,3-a]pyridin-7-yl)-3-(3-((1′,1′-dioxidospiro[oxetane-3,4′-pyrido[2,3-b][1,4,5]oxathiazepin]-2′(3′H)-yl)methyl)-4-methylphenyl)propanoic Acid] | < 1 nM | 2630 nM
12 | Cc1ccc([C@H](CC(=O)O)c2ccn3c(C(F)F)nnc3c2C)cc1CN1C[C@@H]2CCCN2c2ncc(C#N)cc2S1(=O)=O (single isomer, unassigned) [Example 543, (*S)-3-(3-(((S)-3-Cyano-5,5-dioxido-7a,8,9,10-tetrahydropyrido[2,3-f]pyrrolo[2,1-d][1,2,5]thiadiazepin-6(7H)-yl)methyl)-4-methylphenyl)-3-(3-(difluoromethyl)-8-methyl-[1,2,4]triazolo[4,3-a]pyridin-7-yl)propanoic Acid] | < 1 nM | 42.9 nM
13 | Cc1ccc([C@H](c2ccc3c(nnn3C3CC3)c2C)C(C)(C)C(=O)O)cc1CN1CC2(CC2)Oc2nc(N[C@@H](C)CN3CCCCC3)c(C)cc2S1(=O)=O (single isomer, unassigned) [Example 660, (*R)-3-(1-Cyclopropyl-4-methyl-1H-benzo[d][1,2,3]triazol-5-yl)-2,2-dimethyl-3-(4-methyl-3-((8′-methyl-1′,1′-dioxido-7′-(((S)-1-(piperidin-1-yl)propan-2-yl)amino)spiro[cyclopropane-1,4′-pyrido[2,3-b][1,4,5]oxathiazepin]-2′(3′H)-yl)methyl)phenyl)propanoic Acid] | 681 nM | 235 nM
14 | Cc1ccc([C@@H](CC(=O)O)c2ccn3c(C(F)F)nnc3c2C)cc1CN1C[C@]2(C)CCCN2c2ncccc2S1(=O)=O (single isomer, unassigned) [Example 477, (*R)-3-(3-(Difluoromethyl)-8-methyl-[1,2,4]triazolo[4,3-a]pyridin-7-yl)-3-(4-methyl-3-(((*S)-7a-methyl-5,5-dioxido-7a,8,9,10-tetrahydropyrido[2,3-f]pyrrolo[2,1-d][1,2,5]thiadiazepin-6(7H)-yl)methyl)phenyl)propanoic Acid] | 2.61 nM | 1680 nM
15 | Cc1ccc([C@H](CC(N)=O)c2ccn3c(C(F)(F)F)nnc3c2C)cc1CN1C[C@@H]2CCCCN2c2ncccc2S1(=O)=O (single isomer, unassigned) [Example 548, (*S)-3-(3-(((*S)-5,5-Dioxido-7,7a,8,9,10,11-hexahydro-6H-dipyrido[2,1-d:2′,3′-f][1,2,5]thiadiazepin-6-yl)methyl)-4-methylphenyl)-3-(8-methyl-3-(trifluoromethyl)-[1,2,4]triazolo[4,3-a]pyridin-7-yl)propanamide] | 260 nM | 2740 nM
16 | Cc1c([C@H](CC(=O)O)c2ccc(Cl)c(CN3CC4CCCCN4c4ncc(F)cc4S3(=O)=O)c2)ccn2c(C(F)(F)F)nnc12 (single isomer, unassigned) [Example 93, (*R)-3-(4-Chloro-3-(((*S)-3-fluoro-5,5-dioxido-7,7a,8,9,10,11-hexahydro-6H-dipyrido[2,1-d:2′,3′-f][1,2,5]thiadiazepin-6-yl)methyl)phenyl)-3-(8-methyl-3-(trifluoromethyl)-[1,2,4]triazolo[4,3-a]pyridine-7-yl)propanoic Acid] | < 1 nM | 10 nM
17 | Cc1ccc(C(CC(=O)O)c2ccc3c(nnn3CC3CC3)c2C)cc1CN1CC2(COC2)Oc2ccccc2S1(=O)=O (stereo not shown) [Example 74, 3-(1-(Cyclopropylmethyl)-4-methyl-1H-benzo[d][1,2,3]triazol-5-yl)-3-(3-((1′,1′-dioxidospiro[benzo[b][1,4,5]oxathiazepin-4,3′-oxetan]-2,(3H)-yl)methyl)-4-methylphenyl)propanoic Acid] | < 1 nM | 24 nM
